From patent publication US5859056A, “Pharmaceutical composition for treating cardiovascular diseases containing 3-(2,2,2-trimethylhydrazinium)propionate and γ-butyrobetaine” (priority 1995, dated 1999)
Read-outs that look alike come from different tables or passages of the source.

Assays:
[1] = system: CaCl2-induced lethal arrhythmias in mice; assay: CaCl2-induced lethal arrhythmias in mice (Table 4); format: in vivo, albino mice; details: for Survive (number of animals): 10 observations
Experimental: This experiment was performed on male and female conscious albino mice (19-26 g) administering to their tail vein a 2% (by weight) calcium chloride solution, animal protection against lethal arrhythmia being used as an effect criterion (Table 4).

[2] = system: CaCl2-induced lethal arrhythmias in rats; assay: CaCl2-induced lethal arrhythmias in rats (Table 5); format: in vivo, albino rats; details: for Survive (number of animals) / Survive (percent): 5 observations
Experimental: These experiments were performed on male and female albino rats (190 to 230 g) anesthetized with urethane ([…], i.p.), and after 2% calcium chloride solution administration to animal foot vein ECG was registered in II standard lead.

[3] = literature statements; cited from earlier work
[4] = system: hemodynamics of anesthetised cats; assay: effects on hemodynamics of anesthetised cats (Table 1); format: in vivo, cat
Experimental: The experiments were performed on male and female (2.9-3.8 kg) anaesthetized cats (urethane 200 mg/kg and chloralose 50 mg/kg, both i.p.).
The chest was opened in the experimental animals, which were artificially respirated, and blood pressure in the carotid artery as well as general aorta blood flow were measured on physiograph DMP-46 "Narco Bio-Systems" USA.

[5] = system: isolated rabbit ear blood vessel; assay: adrenaline-induced isolated rabbit ear blood vessel spasms (Table 2); details: for Perfusion pressure, final data, max / Perfusion pressure, final data, min: after adrenaline 3.10^-7 M addition
rabbit ear blood vessel = assay: adrenaline-induced rabbit ear blood vessel spasm in the presence of L-nitro-arginine (Table 3); details: adrenaline 3.10^-7 M and L-NO2-Arg 10 mg/l
in vivo = details: mouse, in vivo
Experimental: (§1) Acute toxicity was studied on male and female albino mice (19-26 g), 10 animals in a group. The substances were administered as a 10% solution orally or i.v. (with 0.004 ml/sec rate).

albino mice = assay: in vivo; details: in words
Experimental: as §1

[6] = system: ischemia- and reperfusion-induced heart rhythm disturbances in rats; assay: ischemia- and reperfusion-induced heart rhythm disturbances in rats, therapeutic regimen (Table 6); format: in vivo, Wistar rats; details: for Lethality (number of animals from total numb) / ST rise during occlusion / Ventricular fibrillation (number of animals from total numb) / Ventricular tachycardy (number of animals from total numb): 50 mg/kg total (25 injection + 25 infusion); for efficacy against ischaemia-reperfusion-induced damage and rhythm disturbances: therapeutic regimen, in words
Experimental: (§2) The experiments were carried out on Wistar rats (260-330 g). During phenobarbital anesthesia (50 mg/kg, i.p.) and artificial respiration their chest was opened and the left coronary artery was ligated with 6.0 Silk Ethicon thread which was pulled out through plastic pipe. Occlusion was made by pressing the plastic pipe to the heart surface, and ischaemia stage was controlled by ECG, fixing ischaemia-induced changes in ECG. Solutions of the substances or saline were i.v. injected in two regimens:
2) therapeutically--1.5 min after occlusion by administering 25 mg/kg in injection and 25 mg/kg infusively. Infusion was stopped 2 min after reperfusion.

[7] = system: ischemia and reperfusion-induced heart rhythm disturbances in rats; assay: ischemia and reperfusion-induced heart rhythm disturbances in rats, prophylactic regimen (Table 7); format: in vivo, Wistar rats; details: for Lethality (number of animals from total numb) / ST rise during occlusion / Ventricular fibrillation (number of animals from total numb) / Ventricular tachycardy (number of animals from total numb): 50 mg/kg (proph.), i.v. 30 min before occlusion; for efficacy against ischaemia-reperfusion-induced damage and rhythm disturbances: prophylactic regimen, in words
Experimental: as §2
1) prophylactically--30 min before occlusion by administration of 50 mg/kg,

[8] = cited from earlier work; for toxic effects: W. Linneweh, 1929
carnitine biosynthesis = details: cited from earlier work; for mechanism of action: literature

CCOC(=O)Nc1ccc2c(c1)N(C(=O)CCN1CCOCC1)c1ccccc1S2 [Etmozine]
Protection against the control ([1]; 5 mg/kg p.o.): 20% | Survive (number of animals) ([1]; 5 mg/kg p.o.): 3 | Protection against the control ([1]; 10 mg/kg p.o.): 40% | Survive (number of animals) ([1]; 10 mg/kg p.o.): 5 | Protection against the control ([1]; 30 mg/kg p.o.): 40% | Survive (number of animals) ([1]; 30 mg/kg p.o.): 5 | Protection against the control ([2]; 3 mg/kg p.o.): 20% | Survive (number of animals) ([2]; 3 mg/kg p.o.): 1 | Survive (percent) ([2]; 3 mg/kg p.o.): 10% | Protection against the control ([2]; 10 mg/kg p.o.): 46% | Survive (number of animals) ([2]; 10 mg/kg p.o.): 2 | Survive (percent) ([2]; 10 mg/kg p.o.): 40%

COC(=O)CCC[N+](C)(C)C [methyl ester]
pharmacological action [3]: possesses cholinergic properties

C[N+](C)(C)CCCC(=O)[O-] [GBB, γ-butyrobetaine]
Blood flow rate changes ([4]; 5.0 mg/kg i.v.): 6% | Blood flow rate changes ([4]; 10.0 mg/kg i.v.): 12% | Perfusion pressure, final data, max ([5]; 0.3 μM): 124 mm Hg | Perfusion pressure, final data, min ([5]; 0.3 μM): 76 mm Hg | Perfusion pressure, final data, max ([5]; 1.0 μM): 125 mm Hg | Perfusion pressure, final data, min ([5]; 1.0 μM): 80 mm Hg | Perfusion pressure, final data, max ([5]; 2.0 μM): 125 mm Hg | Perfusion pressure, final data, min ([5]; 2.0 μM): 78 mm Hg | potency on adrenaline-induced vessel spasms relative to 3-(2,2,2-trimethylhydrazinium)propionate ([5]; isolated rabbit ear): 2-3 times | Perfusion pressure, final data, max (rabbit ear blood vessel; 0.3 μM): 168 mm Hg | Perfusion pressure, final data, min (rabbit ear blood vessel; 0.3 μM): 105 mm Hg | Perfusion pressure, final data, max (rabbit ear blood vessel; 1.0 μM): 165 mm Hg | Perfusion pressure, final data, min (rabbit ear blood vessel; 1.0 μM): 100 mm Hg | Perfusion pressure, final data, max (rabbit ear blood vessel; 2.0 μM): 163 mm Hg | Perfusion pressure, final data, min (rabbit ear blood vessel; 2.0 μM): 100 mm Hg | Protection against the control ([1]; 8 mg/kg p.o.): 10% | Survive (number of animals) ([1]; 8 mg/kg p.o.): 2 | Protection against the control ([1]; 20 mg/kg p.o.): 0% | Survive (number of animals) ([1]; 20 mg/kg p.o.): 1 | Protection against the control ([1]; 30 mg/kg p.o.): 20% | Survive (number of animals) ([1]; 30 mg/kg p.o.): 3 | Protection against the control ([1]; 50 mg/kg p.o.): 40% | Survive (number of animals) ([1]; 50 mg/kg p.o.): 5 | Protection against the control ([1]; 100 mg/kg p.o.): 30% | Survive (number of animals) ([1]; 100 mg/kg p.o.): 4 | protection from lethal arrhythmia (cases) ([1]; 50 and 100 mg/kg of γ-butyrobetaine): 30-40% | Protection against the control ([2]; 10 mg/kg p.o.): 20% | Survive (number of animals) ([2]; 10 mg/kg p.o.): 1 | Survive (percent) ([2]; 10 mg/kg p.o.): 20% | Protection against the control ([2]; 30 mg/kg p.o.): 32% | Survive (number of animals) ([2]; 30 mg/kg p.o.): 1 | Survive (percent) ([2]; 30 mg/kg p.o.): 20% | LD50 (in vivo; iv): 1860 mg/kg | LD50 (in vivo; po): > 4500 mg/kg | acute toxicity (albino mice): practically nontoxic agent | Lethality (number of animals from total numb) [6]: 1/10 | ST rise during occlusion [6]: 0.23 ± 0.05 mV | Ventricular fibrillation (number of animals from total numb) [6]: 4/10 | Ventricular tachycardy (number of animals from total numb) [6]: 7/10 | efficacy against ischaemia-reperfusion-induced damage and rhythm disturbances [6]: effectively protects myocardium from ischaemia-reperfusion-induced myocardium damages and ventricular fibrillations which are partially resumed after infusion termination | Lethality (number of animals from total numb) [7]: 3/8 | ST rise during occlusion [7]: 0.36 mV | Ventricular fibrillation (number of animals from total numb) [7]: 6/8 | Ventricular tachycardy (number of animals from total numb) [7]: 8/8 | efficacy against ischaemia-reperfusion-induced damage and rhythm disturbances [7]: ineffective | toxic effects ([8]; listed as γ-Butyrobetaine): accelerates respiration, causes salivation and lacrimation, pupil dilation, vasoconstriction and heart stop in diastole | toxic effects ([8]; listed as γ-butyrobetaine): heart stop in diastole | LD50 ([8]; s.c.): > 7000 mg/kg | pharmacological action [3]: pharmacologically inert substance | level of carnitine biosynthesis in the organism (carnitine biosynthesis; background statement): increases the level of carnitine biosynthesis in the organism

CC(=O)OCC[N+](C)(C)C [Ach, acetyl choline]
Blood pressure changes ([4]; 0.001 mg/kg i.v.): -35% | Heart rate changes ([4]; 0.001 mg/kg i.v.): -20%

C=C[C@H]1C[N@@]2CC[C@H]1C[C@@H]2[C@@H](O)c1ccnc2ccc(OC)cc12 [Quinidine]
Protection against the control ([1]; 10 mg/kg p.o.): 10% | Survive (number of animals) ([1]; 10 mg/kg p.o.): 2 | Protection against the control ([1]; 30 mg/kg p.o.): 30% | Survive (number of animals) ([1]; 30 mg/kg p.o.): 4 | Protection against the control ([1]; 50 mg/kg p.o.): 50% | Survive (number of animals) ([1]; 50 mg/kg p.o.): 6 | Protection against the control ([2]; 3 mg/kg p.o.): 25% | Survive (number of animals) ([2]; 3 mg/kg p.o.): 1 | Survive (percent) ([2]; 3 mg/kg p.o.): 20% | Protection against the control ([2]; 10 mg/kg p.o.): 46% | Survive (number of animals) ([2]; 10 mg/kg p.o.): 2 | Survive (percent) ([2]; 10 mg/kg p.o.): 40%

C[N+](C)(C)NCCC(=O)[O-] [M, 3-(2,2,2-Trimethylhydrazinium)propionate]
Blood flow rate changes ([4]; 5.0 mg/kg i.v.): +5% | Blood flow rate changes ([4]; 10.0 mg/kg i.v.): +8% | Perfusion pressure, final data, max ([5]; 0.3 μM): 125 mm Hg | Perfusion pressure, final data, min ([5]; 0.3 μM): 80 mm Hg | Perfusion pressure, final data, max ([5]; 1.0 μM): 123 mm Hg | Perfusion pressure, final data, min ([5]; 1.0 μM): 77 mm Hg | Perfusion pressure, final data, max ([5]; 2.0 μM): 126 mm Hg | Perfusion pressure, final data, min ([5]; 2.0 μM): 80 mm Hg | Perfusion pressure, final data, max (rabbit ear blood vessel; 0.3 μM): 165 mm Hg | Perfusion pressure, final data, min (rabbit ear blood vessel; 0.3 μM): 102 mm Hg | Perfusion pressure, final data, max (rabbit ear blood vessel; 1.0 μM): 163 mm Hg | Perfusion pressure, final data, min (rabbit ear blood vessel; 1.0 μM): 100 mm Hg | Perfusion pressure, final data, max (rabbit ear blood vessel; 2.0 μM): 165 mm Hg | Perfusion pressure, final data, min (rabbit ear blood vessel; 2.0 μM): 100 mm Hg | Protection against the control ([1]; 8 mg/kg p.o.): 10% | Survive (number of animals) ([1]; 8 mg/kg p.o.): 2 | Protection against the control ([1]; 20 mg/kg p.o.): 20% | Survive (number of animals) ([1]; 20 mg/kg p.o.): 3 | Protection against the control ([1]; 30 mg/kg p.o.): 30% | Survive (number of animals) ([1]; 30 mg/kg p.o.): 4 | Protection against the control ([1]; 50 mg/kg p.o.): 30% | Survive (number of animals) ([1]; 50 mg/kg p.o.): 4 | Protection against the control ([1]; 100 mg/kg p.o.): 40% | Survive (number of animals) ([1]; 100 mg/kg p.o.): 5 | Protection against the control ([2]; 10 mg/kg p.o.): 15% | Survive (number of animals) ([2]; 10 mg/kg p.o.): 1 | Survive (percent) ([2]; 10 mg/kg p.o.): 20% | Protection against the control ([2]; 20 mg/kg p.o.): 23% | Survive (number of animals) ([2]; 20 mg/kg p.o.): 1 | Survive (percent) ([2]; 20 mg/kg p.o.): 20% | Protection against the control ([2]; 30 mg/kg p.o.): 25% | Survive (number of animals) ([2]; 30 mg/kg p.o.): 1 | Survive (percent) ([2]; 30 mg/kg p.o.): 20% | Lethality (number of animals from total numb) [6]: 3/10 | ST rise during occlusion [6]: 0.4 ± 0.1 mV | Ventricular fibrillation (number of animals from total numb) [6]: 8/10 | Ventricular tachycardy (number of animals from total numb) [6]: 10/10 | efficacy against ischaemia-reperfusion-induced damage and rhythm disturbances [6]: relatively low | Lethality (number of animals from total numb) [7]: 2/8 | ST rise during occlusion [7]: 0.31 mV | Ventricular fibrillation (number of animals from total numb) [7]: 5/8 | Ventricular tachycardy (number of animals from total numb) [7]: 7/8 | efficacy against ischaemia-reperfusion-induced damage and rhythm disturbances [7]: markedly better in the case of prophylaxis, i.e., 30 min. before occlusion when it protects myocardium from ischemia increase during occlusion | mechanism of action (carnitine biosynthesis): limitation of carnitine biosynthesis rate and the related long-chain fatty acid Transport limitation through mitochondria membranes | mechanism of action (carnitine biosynthesis; listed as 3-(2,2,2-trimethylhydrazinium)-propionate (THP)): γ-butyrobetaine hydroxylase inhibitor
